Source: patent publication US10131652B2, “Pyrimidinyloxy benzene derivatives as herbicides” (E. I. DU PONT DE NEMOURS AND COMPANY, priority 2014, dated 2018)

Experiments:
Type in all cases: in vivo
[1] = tested on: barnyardgrass (Echinochloa crus-galli); experiment: Test D flooded paddy test plant response; settings: Flood (flooded paddy test), visual rating on scale 0 to 100 (0 no effect, 100 complete control), 13 to 15 days
Description: (§1) Plant species in the flooded paddy test consisted of rice (Oryza sativa), small-flower umbrella sedge (Cyperus difformis), ducksalad (Heteranthera limosa), and bamyardgrass (Echinochloa crus-galli) grown to the 2-leaf stage for testing. At time of treatment, test pots were flooded to 3 cm above the soil surface, treated by application of test compounds directly to the paddy water, and then maintained at that water depth for the duration of the test. Treated plants and controls were maintained in a greenhouse for 13 to 15 days, after which time all species were compared to controls and visually evaluated. Plant response ratings, summarized in Table D, are based on a scale of 0 to 100 where 0 is no effect and 100 is complete control. A dash (-) response means no test result.

[2] = tested on: ducksalad (Heteranthera limosa); experiment: Test D flooded paddy test plant response; settings: Flood (flooded paddy test), visual rating on scale 0 to 100 (0 no effect, 100 complete control), 13 to 15 days
Description: as §1

rice (Oryza sativa) = experiment: Test D flooded paddy test plant response; settings: Flood (flooded paddy test), visual rating on scale 0 to 100 (0 no effect, 100 complete control), 13 to 15 days
Description: as §1

[3] = tested on: small-flower umbrella sedge (Cyperus difformis); experiment: Test D flooded paddy test plant response; settings: Flood (flooded paddy test), visual rating on scale 0 to 100 (0 no effect, 100 complete control), 13 to 15 days
Description: as §1

[4] = tested on: barnyardgrass (Echinochloa crus-galli); experiment: Test G flooded paddy rice/weed plant response; settings: Flood, 21 days, scale 0 to 100 (0 no effect, 100 complete control)
Description: (§2) Three plastic pots (ca. 16-cm diameter) per rate were partially filled with sterilized Tama silt loam soil comprising a 35:50:15 ratio of sand, silt and clay and 2.6% organic matter. Separate plantings for each of the three pots were as follows. Seeds from the U.S. of monochoria (Monochoria vaginalis), small-flower umbrella sedge (Cyperus difformis), hardstem bulrush (Scirpus juncoides), and redstem (purple redstem, Ammannia coccinea), were planted into one 16-cm pot for each rate. Seeds from the U.S. of rice flatsedge (Cyperus iria), bearded sprangletop (Leptochloa fascicularis), one stand of 9 or 10 water seeded rice seedlings (Indica rice, Oryza sativa), and two stands of 3 or 4 transplanted rice seedlings (Oryza sativa cv. ‘Japonica—M202’) were planted into one 16-cm pot for each rate. Seeds from the U.S. of bamyardgrass (Echinochloa crus-galli), and late watergrass (Echinochloa oryzicola) were planted into one 16-cm pot for each rate. Plantings were sequential so that crop and weed species were at the 2.0 to 2.5-leaf stage at time of treatment.
(§3) Potted plants were grown in a greenhouse with day/night temperature settings of 30/27° C., and supplemental balanced lighting was provided to maintain a 16-hour photoperiod. Test pots were maintained in the greenhouse until test completion.
(§4) At time of treatment, test pots were flooded to 3 cm above the soil surface, treated by application of test compounds directly to the paddy water, and then maintained at that water depth for the duration of the test. Effects of treatments on rice and weeds were visually evaluated by comparison to untreated controls after 21 days. Plant response ratings, summarized in Table G, are based on a scale of 0 to 100 where 0 is no effect and 100 is complete control. A dash (-) response means no test result.

[5] = tested on: bearded sprangletop (Leptochloa fascicularis); experiment: Test G flooded paddy rice/weed plant response; settings: Flood, 21 days, scale 0 to 100 (0 no effect, 100 complete control)
Description: as §2, §3, §4

[6] = tested on: late watergrass (Echinochloa oryzicola); experiment: Test G flooded paddy rice/weed plant response; settings: Flood, 21 days, scale 0 to 100 (0 no effect, 100 complete control)
Description: as §2, §3, §4

[7] = tested on: redstem (purple redstem, Ammannia coccinea); experiment: Test G flooded paddy rice/weed plant response; settings: Flood, 21 days, scale 0 to 100 (0 no effect, 100 complete control)
Description: as §2, §3, §4

[8] = tested on: rice flatsedge (Cyperus iria); experiment: Test G flooded paddy rice/weed plant response; settings: Flood, 21 days, scale 0 to 100 (0 no effect, 100 complete control)
Description: as §2, §3, §4

[9] = tested on: small-flower umbrella sedge (Cyperus difformis); experiment: Test G flooded paddy rice/weed plant response; settings: Flood, 21 days, scale 0 to 100 (0 no effect, 100 complete control)
Description: as §2, §3, §4

[10] = tested on: water seeded rice seedlings (Indica rice, Oryza sativa); experiment: Test G flooded paddy rice/weed plant response; settings: Flood, 21 days, scale 0 to 100 (0 no effect, 100 complete control)
Description: as §2, §3, §4

Fc1cccc(Oc2ncc(Cl)cn2)c1-c1cc(C(F)F)on1 [Compound 55, 5-chloro-2-[2-[5-(difluoromethyl)-3-isoxazolyl]-3-fluorophenoxy]pyrimidine]
Plant response rating, Barnyardgrass ([1]; 31 g ai/ha): 0 | Plant response rating, Barnyardgrass ([1]; 62 g ai/ha): 0 | Plant response rating, Barnyardgrass ([1]; 125 g ai/ha): 10 | Plant response rating, Barnyardgrass ([1]; 250 g ai/ha): 30 | Plant response rating, Ducksalad ([2]; 31 g ai/ha): 75 | Plant response rating, Ducksalad ([2]; 62 g ai/ha): 80 | Plant response rating, Ducksalad ([2]; 125 g ai/ha): 85 | Plant response rating, Ducksalad ([2]; 250 g ai/ha): 90 | Plant response rating, Rice (rice (Oryza sativa); 31 g ai/ha): 0 | Plant response rating, Rice (rice (Oryza sativa); 62 g ai/ha): 0 | Plant response rating, Rice (rice (Oryza sativa); 125 g ai/ha): 0 | Plant response rating, Rice (rice (Oryza sativa); 250 g ai/ha): 0 | Plant response rating, Sedge, Umbrella ([3]; 31 g ai/ha): 75 | Plant response rating, Sedge, Umbrella ([3]; 62 g ai/ha): 75 | Plant response rating, Sedge, Umbrella ([3]; 125 g ai/ha): 85 | Plant response rating, Sedge, Umbrella ([3]; 250 g ai/ha): 100 | Plant response rating, Barnyardgrass ([4]; 32 g ai/ha): 0 | Plant response rating, Barnyardgrass ([4]; 64 g ai/ha): 75 | Plant response rating, Barnyardgrass ([4]; 125 g ai/ha): 100 | Plant response rating, Barnyardgrass ([4]; 250 g ai/ha): 100 | Plant response rating, Sprangletop, Brdd. ([5]; 32 g ai/ha): 45 | Plant response rating, Sprangletop, Brdd. ([5]; 64 g ai/ha): 80 | Plant response rating, Sprangletop, Brdd. ([5]; 125 g ai/ha): 100 | Plant response rating, Sprangletop, Brdd. ([5]; 250 g ai/ha): 100 | Plant response rating, Watergrass, Late ([6]; 32 g ai/ha): 0 | Plant response rating, Watergrass, Late ([6]; 64 g ai/ha): 0 | Plant response rating, Watergrass, Late ([6]; 125 g ai/ha): 75 | Plant response rating, Watergrass, Late ([6]; 250 g ai/ha): 100 | Plant response rating, Redstem ([7]; 32 g ai/ha): 85 | Plant response rating, Redstem ([7]; 64 g ai/ha): 95 | Plant response rating, Redstem ([7]; 125 g ai/ha): 100 | Plant response rating, Redstem ([7]; 250 g ai/ha): 100 | Plant response rating, Flatsedge, Rice ([8]; 32 g ai/ha): 85 | Plant response rating, Flatsedge, Rice ([8]; 64 g ai/ha): 100 | Plant response rating, Flatsedge, Rice ([8]; 125 g ai/ha): 100 | Plant response rating, Flatsedge, Rice ([8]; 250 g ai/ha): 100 | Plant response rating, Sedge, Umbrella ([9]; 32 g ai/ha): 98 | Plant response rating, Sedge, Umbrella ([9]; 64 g ai/ha): 100 | Plant response rating, Sedge, Umbrella ([9]; 125 g ai/ha): 100 | Plant response rating, Sedge, Umbrella ([9]; 250 g ai/ha): 100 | Plant response rating, Rice, Water Seeded ([10]; 32 g ai/ha): 45 | Plant response rating, Rice, Water Seeded ([10]; 64 g ai/ha): 100 | Plant response rating, Rice, Water Seeded ([10]; 125 g ai/ha): 100 | Plant response rating, Rice, Water Seeded ([10]; 250 g ai/ha): 100

FC(F)c1cc(-c2ccccc2Oc2ncc(Cl)cn2)no1 [Compound 35, 5-chloro-2-[2-[5-(difluoromethyl)-3-isoxazolyl]phenoxy]pyrimidine]
Plant response rating, Barnyardgrass ([4]; 32 g ai/ha): 30 | Plant response rating, Barnyardgrass ([4]; 64 g ai/ha): 45 | Plant response rating, Barnyardgrass ([4]; 125 g ai/ha): 100 | Plant response rating, Barnyardgrass ([4]; 250 g ai/ha): 100 | Plant response rating, Sprangletop, Brdd. ([5]; 32 g ai/ha): 60 | Plant response rating, Sprangletop, Brdd. ([5]; 64 g ai/ha): 100 | Plant response rating, Sprangletop, Brdd. ([5]; 125 g ai/ha): 100 | Plant response rating, Sprangletop, Brdd. ([5]; 250 g ai/ha): 100 | Plant response rating, Watergrass, Late ([6]; 32 g ai/ha): 0 | Plant response rating, Watergrass, Late ([6]; 64 g ai/ha): 30 | Plant response rating, Watergrass, Late ([6]; 125 g ai/ha): 40 | Plant response rating, Watergrass, Late ([6]; 250 g ai/ha): 100 | Plant response rating, Redstem ([7]; 32 g ai/ha): 0 | Plant response rating, Redstem ([7]; 64 g ai/ha): 85 | Plant response rating, Redstem ([7]; 125 g ai/ha): 90 | Plant response rating, Redstem ([7]; 250 g ai/ha): 100 | Plant response rating, Flatsedge, Rice ([8]; 32 g ai/ha): 100 | Plant response rating, Flatsedge, Rice ([8]; 64 g ai/ha): 100 | Plant response rating, Flatsedge, Rice ([8]; 125 g ai/ha): 100 | Plant response rating, Flatsedge, Rice ([8]; 250 g ai/ha): 100 | Plant response rating, Sedge, Umbrella ([9]; 32 g ai/ha): 0 | Plant response rating, Sedge, Umbrella ([9]; 64 g ai/ha): 98 | Plant response rating, Sedge, Umbrella ([9]; 125 g ai/ha): 100 | Plant response rating, Sedge, Umbrella ([9]; 250 g ai/ha): 100 | Plant response rating, Rice, Water Seeded ([10]; 32 g ai/ha): 60 | Plant response rating, Rice, Water Seeded ([10]; 64 g ai/ha): 70 | Plant response rating, Rice, Water Seeded ([10]; 125 g ai/ha): 100 | Plant response rating, Rice, Water Seeded ([10]; 250 g ai/ha): 100
